{"source": "patent US20180000085A1", "about": "“USE OF PICOLINAMIDE COMPOUNDS WITH FUNGICIDAL ACTIVITY” (DOW AGROSCIENCES LLC, priority 2014, published 2018)", "key": {"[1]": {"test_system": "Puccinia triticina", "assay": "Wheat brown rust (PUCCRT) disease control on wheat seedlings", "type": "in vivo", "set-up": "key to PUCCRT 3DC, HV activity at 100 ppm (% control rating) / PUCCRT disease control, 3DC / PUCCRT 1DP disease control rating, HV activity / PUCCRT 3DC disease control rating, HV activity / PUCCRT 3DC, LV activity at 125.1 g/H (% Control rating) / PUCCRT 1DP, LV activity at 125.1 g/H (% Control rating) / PUCCRT 3DC disease control rating, LV activity at 125.1 g/H / PUCCRT 1DP disease control rating, LV activity at 125.1 g/H / PUCCRT 3DC disease control rating, HV activity at 100 ppm / PUCCRT 1DP disease control rating, HV activity at 100 ppm / HV activity at 100 ppm PUCCRT 3DC (disease control rating) / LV activity at 125.1 g/H PUCCRT 1DP (disease control rating) / LV activity at 125.1 g/H PUCCRT 3DC (disease control rating): A: > 80; B: ≤ 80; C: Not Tested; D: No Activity Observed in the Reported Assay", "conditions": "for PUCCRT 1DP disease control rating, HV activity at 100 ppm / PUCCRT 3DC disease control rating, HV activity at 100 ppm: high volume application; for PUCCRT 1DP disease control rating, HV activity at 100 ppm / PUCCRT 1DP disease control rating, LV activity at 125.1 g/H: 1 day protectant; for PUCCRT 3DC disease control rating, HV activity at 100 ppm / PUCCRT 3DC disease control rating, LV activity at 125.1 g/H: 3 day curative; for PUCCRT 1DP disease control rating, HV activity / PUCCRT 3DC disease control rating, HV activity: HV application at 100 ppm"}, "[2]": {"test_system": "Zymoseptoria tritici", "assay": "Leaf blotch of wheat (SEPTTR) disease control on wheat seedlings", "type": "in vivo", "set-up": "key to SEPTTR 1DP, HV activity at 100 ppm (% control rating) / SEPTTR 3DC, HV activity at 100 ppm (% control rating) / SEPTTR disease control, 1DP / SEPTTR disease control, 3DC / SEPTTR 1DP disease control rating, HV activity / SEPTTR 3DC disease control rating, HV activity / SEPTTR 3DC, LV activity at 125.1 g/H (% Control rating) / SEPTTR 1DP, LV activity at 125.1 g/H (% Control rating) / SEPTTR 1DP disease control rating, LV activity at 125.1 g/H / SEPTTR 3DC disease control rating, LV activity at 125.1 g/H / SEPTTR 3DC disease control rating, HV activity at 100 ppm / SEPTTR 1DP disease control rating, HV activity at 100 ppm / HV activity at 100 ppm SEPTTR 3DC (disease control rating) / HV activity at 100 ppm SEPTTR 1DP (disease control rating) / LV activity at 125.1 g/H SEPTTR 1DP (disease control rating) / LV activity at 125.1 g/H SEPTTR 3DC (disease control rating): A: > 80; B: ≤ 80; C: Not Tested; D: No Activity Observed in the Reported Assay", "conditions": "for SEPTTR 1DP disease control rating, HV activity at 100 ppm / SEPTTR 3DC disease control rating, HV activity at 100 ppm: high volume application; for SEPTTR 1DP disease control rating, HV activity at 100 ppm / SEPTTR 1DP disease control rating, LV activity at 125.1 g/H: 1 day protectant; for SEPTTR 3DC disease control rating, HV activity at 100 ppm / SEPTTR 3DC disease control rating, LV activity at 125.1 g/H: 3 day curative; for SEPTTR 1DP disease control rating, HV activity / SEPTTR 3DC disease control rating, HV activity: HV application at 100 ppm"}, "[3]": {"conditions": "1 Day Protectant, wheat brown rust"}, "[4]": {"conditions": "3 Day Curative, wheat brown rust"}, "[5]": {"conditions": "1 Day Protectant, wheat leaf blotch"}, "[6]": {"conditions": "3 Day Curative, wheat leaf blotch"}, "[7]": {"conditions": "low volume application, 125.1 g/H"}, "[8]": {"conditions": "low volume application, 125.1 g/H, 1 Day Protectant"}, "[9]": {"conditions": "low volume application, 125.1 g/H, 3 Day Curative"}}}
{"smiles": "COc1ccnc(C(=O)N[C@@H](C)C(=O)O[C@@H](C)[C@H](OCC(C)C)C2CCCC2)c1O", "note": "[Cmpd 844]", "values": [{"measurement": "PUCCRT 1DP disease control rating, HV activity at 100 ppm", "setting": "[1]; 100 ppm", "result": "A (> 80)"}, {"measurement": "PUCCRT 3DC disease control rating, HV activity at 100 ppm", "setting": "[1]; 100 ppm", "result": "A (> 80)"}, {"measurement": "SEPTTR 1DP disease control rating, HV activity at 100 ppm", "setting": "[2]; 100 ppm", "result": "B (≤ 80)"}, {"measurement": "SEPTTR 3DC disease control rating, HV activity at 100 ppm", "setting": "[2]; 100 ppm", "result": "A (> 80)"}]}
{"smiles": "COc1ccnc(C(=O)N[C@H](C)C(=O)O[C@H](C)[C@@H](Oc2ccccc2)c2ccccc2)c1O", "note": "[Cmpd 352]", "values": [{"measurement": "PUCCRT 1DP disease control rating, HV activity", "setting": "[1]; [3]", "result": "D"}, {"measurement": "PUCCRT 3DC disease control rating, HV activity", "setting": "[1]; [4]", "result": "D"}, {"measurement": "SEPTTR 1DP disease control rating, HV activity", "setting": "[2]; [5]", "result": "D"}, {"measurement": "SEPTTR 3DC disease control rating, HV activity", "setting": "[2]; [6]", "result": "B (≤ 80)"}]}
{"smiles": "COc1ccnc(C(=O)N[C@@H](C)C(=O)O[C@@H](C)[C@@H](Oc2cccc3ccccc23)C(C)C)c1OCOC(C)=O", "note": "[Cmpd 854]", "values": [{"measurement": "PUCCRT 1DP disease control rating, LV activity at 125.1 g/H", "setting": "[1]; [7]", "result": "A (> 80)"}, {"measurement": "PUCCRT 3DC disease control rating, LV activity at 125.1 g/H", "setting": "[1]; [7]", "result": "B (≤ 80)"}, {"measurement": "SEPTTR 1DP disease control rating, LV activity at 125.1 g/H", "setting": "[2]; [7]", "result": "B (≤ 80)"}, {"measurement": "SEPTTR 3DC disease control rating, LV activity at 125.1 g/H", "setting": "[2]; [7]", "result": "A (> 80)"}]}
{"smiles": "CC[C@H](Cc1ccc(F)cc1)[C@@H](Oc1ccccc1)[C@H](C)OC(=O)[C@H](C)NC(=O)c1nccc(OC)c1OCOC(C)=O", "note": "[Cmpd 471]", "values": [{"measurement": "PUCCRT 1DP, LV activity at 125.1 g/H (% Control rating)", "setting": "[1]; [8]", "result": "A (> 80)"}, {"measurement": "PUCCRT 3DC, LV activity at 125.1 g/H (% Control rating)", "setting": "[1]; [9]", "result": "A (> 80)"}, {"measurement": "SEPTTR 1DP, LV activity at 125.1 g/H (% Control rating)", "setting": "[2]; [8]", "result": "A (> 80)"}, {"measurement": "SEPTTR 3DC, LV activity at 125.1 g/H (% Control rating)", "setting": "[2]; [9]", "result": "A (> 80)"}]}
{"smiles": "COc1ccnc(C(=O)N[C@@H](C)C(=O)O[C@@H](C)[C@H](Oc2ccc(Cl)cc2Cl)C2CCCC2)c1OCOC(C)=O", "note": "[Cmpd 551]", "values": [{"measurement": "PUCCRT 1DP, LV activity at 125.1 g/H (% Control rating)", "setting": "[1]; [8]", "result": "A (> 80)"}, {"measurement": "PUCCRT 3DC, LV activity at 125.1 g/H (% Control rating)", "setting": "[1]; [9]", "result": "B (≤ 80)"}, {"measurement": "SEPTTR 1DP, LV activity at 125.1 g/H (% Control rating)", "setting": "[2]; [8]", "result": "A (> 80)"}, {"measurement": "SEPTTR 3DC, LV activity at 125.1 g/H (% Control rating)", "setting": "[2]; [9]", "result": "B (≤ 80)"}]}
{"smiles": "COc1cccc(O[C@H](C2CC2)[C@H](C)OC(=O)[C@H](C)NC(=O)c2nccc(OC)c2O)c1", "note": "[Cmpd 1014]", "values": [{"measurement": "PUCCRT 1DP disease control rating, HV activity at 100 ppm", "setting": "[1]; 100 ppm", "result": "A (> 80)"}, {"measurement": "PUCCRT 3DC disease control rating, HV activity at 100 ppm", "setting": "[1]; 100 ppm", "result": "A (> 80)"}, {"measurement": "SEPTTR 1DP disease control rating, HV activity at 100 ppm", "setting": "[2]; 100 ppm", "result": "B (≤ 80)"}, {"measurement": "SEPTTR 3DC disease control rating, HV activity at 100 ppm", "setting": "[2]; 100 ppm", "result": "B (≤ 80)"}]}
{"smiles": "COc1ccnc(C(=O)N[C@@H](C)C(=O)O[C@@H](C)[C@H](Oc2ccc(F)cc2)C2CCCC2)c1O", "note": "[Cmpd 840]", "values": [{"measurement": "PUCCRT 1DP disease control rating, HV activity at 100 ppm", "setting": "[1]; 100 ppm", "result": "A (> 80)"}, {"measurement": "PUCCRT 3DC disease control rating, HV activity at 100 ppm", "setting": "[1]; 100 ppm", "result": "A (> 80)"}, {"measurement": "SEPTTR 1DP disease control rating, HV activity at 100 ppm", "setting": "[2]; 100 ppm", "result": "B (≤ 80)"}, {"measurement": "SEPTTR 3DC disease control rating, HV activity at 100 ppm", "setting": "[2]; 100 ppm", "result": "A (> 80)"}]}
{"smiles": "CC(=O)OCOc1c(Br)ccnc1C(=O)N[C@@H](C)C(=O)O[C@@H](C)[C@H](Oc1ccccc1)C(C)C", "note": "[Cmpd 1086]", "values": [{"measurement": "LV activity at 125.1 g/H PUCCRT 1DP (disease control rating)", "setting": "[1]; low volume application, 125.1 g/H, 1 Day Protectant, wheat brown rust", "result": "B (≤ 80)"}, {"measurement": "LV activity at 125.1 g/H PUCCRT 3DC (disease control rating)", "setting": "[1]; low volume application, 125.1 g/H, 3 Day Curative, wheat brown rust", "result": "D"}, {"measurement": "LV activity at 125.1 g/H SEPTTR 1DP (disease control rating)", "setting": "[2]; low volume application, 125.1 g/H, 1 Day Protectant, wheat leaf blotch", "result": "D"}, {"measurement": "LV activity at 125.1 g/H SEPTTR 3DC (disease control rating)", "setting": "[2]; low volume application, 125.1 g/H, 3 Day Curative, wheat leaf blotch", "result": "D"}]}
{"smiles": "CCCO[C@@H](C(C)C)[C@H](C)OC(=O)[C@H](C)NC(=O)c1nccc(OC)c1OC(C)=O", "note": "[Cmpd 855]", "values": [{"measurement": "PUCCRT 1DP disease control rating, LV activity at 125.1 g/H", "setting": "[1]; [7]", "result": "B (≤ 80)"}, {"measurement": "PUCCRT 3DC disease control rating, LV activity at 125.1 g/H", "setting": "[1]; [7]", "result": "B (≤ 80)"}, {"measurement": "SEPTTR 1DP disease control rating, LV activity at 125.1 g/H", "setting": "[2]; [7]", "result": "D"}, {"measurement": "SEPTTR 3DC disease control rating, LV activity at 125.1 g/H", "setting": "[2]; [7]", "result": "D"}]}
{"smiles": "COc1ccnc(C(=O)NC(C)C(=O)OC(C(C)C)C(Oc2ccccc2)C(C)C)c1O", "note": "(centres unmarked) [Cmpd 1031]", "values": [{"measurement": "HV activity at 100 ppm PUCCRT 1DP (disease control rating)", "setting": "[1]; HV application, 100 ppm, 1 Day Protectant, wheat brown rust", "result": "B (≤ 80)"}, {"measurement": "HV activity at 100 ppm PUCCRT 3DC (disease control rating)", "setting": "[1]; HV application, 100 ppm, 3 Day Curative, wheat brown rust", "result": "D"}, {"measurement": "HV activity at 100 ppm SEPTTR 1DP (disease control rating)", "setting": "[2]; HV application, 100 ppm, 1 Day Protectant, wheat leaf blotch", "result": "B (≤ 80)"}, {"measurement": "HV activity at 100 ppm SEPTTR 3DC (disease control rating)", "setting": "[2]; HV application, 100 ppm, 3 Day Curative, wheat leaf blotch", "result": "D"}]}
{"smiles": "COc1ccnc(C(=O)N[C@@H](C)C(=O)O[C@@H](C)[C@H](Oc2ccc(Cl)cc2)C(C)C)c1O", "note": "[Cmpd 359]", "values": [{"measurement": "PUCCRT 1DP disease control rating, HV activity", "setting": "[1]; [3]", "result": "A (> 80)"}, {"measurement": "PUCCRT 3DC disease control rating, HV activity", "setting": "[1]; [4]", "result": "A (> 80)"}, {"measurement": "SEPTTR 1DP disease control rating, HV activity", "setting": "[2]; [5]", "result": "A (> 80)"}, {"measurement": "SEPTTR 3DC disease control rating, HV activity", "setting": "[2]; [6]", "result": "A (> 80)"}]}
